{"source": "patent US9597407B2", "about": "“Targeted antimicrobial moieties” (C3 Jian, Inc., priority 2009, dated 2017)", "test_system": "bacteria", "assay": "Binding of targeting peptides to microorganisms (Table 3)", "conditions": "preferably 1x PBS", "key": {"[1]": {"conditions": "microorganism the targeting peptide binds, binding in aqueous buffers that varied with peptide solubility"}, "[2]": {"conditions": "peptide binding in aqueous buffers that varied depending on peptide solubility"}, "[3]": {"conditions": "peptide binding in aqueous buffers varied by peptide solubility"}, "[4]": {"conditions": "microorganism bound by the targeting peptide, binding in aqueous buffers chosen by peptide solubility"}}, "note": "“Also recorded” adds a separate entry of the source.", "data": [{"substance": "TT-310 (TKLKKNNKLLSAKKENTLHTKDK; Peptide with targeting and/or antimicrobial activity)", "values": [{"measurement": "Target(s)", "setting": "[1]", "value": "F. nucleatum"}]}, {"substance": "ASKQASKQASKQASKQASKQASRSLKNHLL [PF-523]", "values": [{"measurement": "Target(s) (microorganisms bound by the targeting peptide)", "setting": "[2]", "value": "S. epidermidis; also recorded: M. luteus; also recorded: C. albicans; also recorded: S. pneumoniae; also recorded: C. jeikeium; also recorded: C. jejuni"}]}, {"substance": "1T-294 (YDKIADGVFKIGKRGVL; Peptide with targeting and/or antimicrobial activity) [Peptide 1T-294]", "values": [{"measurement": "Target(s)", "setting": "[1]", "value": "T. denticola"}]}, {"substance": "PF-785 (MRPQHSPAGKAFVVKKITHEQS; Peptide with targeting and/or antimicrobial activity)", "values": [{"measurement": "Target(s) (microorganism bound by the targeting peptide)", "setting": "[2]", "value": "Mycobacteria spp."}]}, {"substance": "1T-32 (VSFLAGWLCLGLAAWRLGNA; Peptide with targeting and/or antimicrobial activity) [Peptide 1T-32]", "values": [{"measurement": "Target(s) (microorganism bound by the targeting peptide)", "setting": "[3]", "value": "S. mutans"}]}, {"substance": "1T-95 (GHLLRVGGRVGGVGGVAGACAQPFGGQ; Peptide with targeting and/or antimicrobial activity) [Peptide 1T-95]", "values": [{"measurement": "Target(s) (microorganism bound by the targeting peptide)", "setting": "[3]", "value": "S. gordonii; also recorded: S. mitis; also recorded: S. mutans; also recorded: S. oralis; also recorded: S. sanguinis"}]}, {"substance": "PF-166 (SKAVSRKRSI; Peptide with targeting and/or antimicrobial activity)", "values": [{"measurement": "Target(s)", "setting": "[4]", "value": "E. coli; also recorded: C. jeikeium"}]}, {"substance": "PF-689 (SAPSG; Peptide with targeting and/or antimicrobial activity)", "values": [{"measurement": "Target(s) (microorganism bound by the targeting peptide)", "setting": "[2]", "value": "S. mutans; also recorded: E. coli"}]}, {"substance": "PF-160 (SFHASLTKNEKPIKSTG; Peptide with targeting and/or antimicrobial activity)", "values": [{"measurement": "Target(s)", "setting": "[4]", "value": "S. epidermidis"}]}, {"substance": "PF-778 (MNLILTAHGT; Peptide with targeting and/or antimicrobial activity)", "values": [{"measurement": "Target(s) (microorganism bound by the targeting peptide)", "setting": "[2]", "value": "Mycobacteria spp."}]}, {"substance": "1T-22 (VPLDDGTRRPEVARNRDKDRED; Peptide with targeting and/or antimicrobial activity) [Peptide 1T-22]", "values": [{"measurement": "Target(s) (microorganism bound by the targeting peptide)", "setting": "[3]", "value": "S. epidermidis; also recorded: P. aeruginosa"}]}, {"substance": "PF-267 (SDDKRTD; Peptide with targeting and/or antimicrobial activity)", "values": [{"measurement": "Target(s)", "setting": "[4]", "value": "M. luteus"}]}, {"substance": "1T-217 (MLSNVLSRSVVSPNVDIPNSMVILSPLLISISNYH; Peptide with targeting and/or antimicrobial activity) [Peptide 1T-217]", "values": [{"measurement": "Target(s)", "setting": "[1]", "value": "F. nucleatum; also recorded: S. sanguinis"}]}, {"substance": "PF-C050 (QGLARPVLRRIPL; Peptide with targeting and/or antimicrobial activity)", "values": [{"measurement": "Target(s) (microorganism bound by the targeting peptide)", "setting": "[2]", "value": "A. naeslundii; also recorded: S. mutans"}]}, {"substance": "PF-329 (IGILFDKSVRKY; Peptide with targeting and/or antimicrobial activity)", "values": [{"measurement": "Target(s)", "setting": "[4]", "value": "S. epidermidis"}]}, {"substance": "PF-228 (NQLGSQAFAQL; Peptide with targeting and/or antimicrobial activity)", "values": [{"measurement": "Target(s)", "setting": "[4]", "value": "S. mutans"}]}, {"substance": "PF-498 (MSEEEEVSEKVYNYLRRNEFFEVRKEEFSA; Peptide with targeting and/or antimicrobial activity)", "values": [{"measurement": "Target(s) (microorganisms bound by the targeting peptide)", "setting": "[2]", "value": "S. mutans; also recorded: E. coli"}]}, {"substance": "PF-201 (GCRPASLSDADPDGR; Peptide with targeting and/or antimicrobial activity)", "values": [{"measurement": "Target(s)", "setting": "[4]", "value": "S. epidermidis; also recorded: M. luteus; also recorded: E. coli; also recorded: C. albicans; also recorded: E. faecalis; also recorded: C. jeikeium; also recorded: C. jejuni"}]}, {"substance": "PF-500 (MGIFKEEKIKFIDCKGEEVILKIKIKDIKK; Peptide with targeting and/or antimicrobial activity)", "values": [{"measurement": "Target(s) (microorganisms bound by the targeting peptide)", "setting": "[2]", "value": "S. mutans; also recorded: E. coli"}]}, {"substance": "PF-727 (AYARCRHDYPFTLGQMQTH; Peptide with targeting and/or antimicrobial activity)", "values": [{"measurement": "Target(s) (microorganism bound by the targeting peptide)", "setting": "[2]", "value": "S. mutans; also recorded: E. coli"}]}, {"substance": "1T-29 (GSVIKKRRKRMSKKKHRKMLRRTRVQRRKLGK; Peptide with targeting and/or antimicrobial activity) [Peptide 1T-29]", "values": [{"measurement": "Target(s) (microorganism bound by the targeting peptide)", "setting": "[3]", "value": "S. epidermidis; also recorded: C. jeikeium; also recorded: C. xerosis; also recorded: C. striatum; also recorded: P. aeruginosa; also recorded: S. mutans; also recorded: S. aureus"}]}, {"substance": "1T-80 (GGNLGPGFGVIIP; Peptide with targeting and/or antimicrobial activity) [Peptide 1T-80]", "values": [{"measurement": "Target(s) (microorganism bound by the targeting peptide)", "setting": "[3]", "value": "S. pneumoniae"}]}, {"substance": "VYSFLYVLVIVRKLLSMKKRIERL [PF-499]", "values": [{"measurement": "Target(s) (microorganisms bound by the targeting peptide)", "setting": "[2]", "value": "S. mutans; also recorded: E. coli"}]}, {"substance": "1T-73 (GWWEELLHETILSKFKITKALELPIQL; Peptide with targeting and/or antimicrobial activity) [Peptide 1T-73]", "values": [{"measurement": "Target(s) (microorganism bound by the targeting peptide)", "setting": "[3]", "value": "S. pneumoniae"}]}, {"substance": "PF-265 (MKTLFFPLFLIIFVLIIQALDQSYQKKIGISKPQKHPEFMQ; Peptide with targeting and/or antimicrobial activity)", "values": [{"measurement": "Target(s)", "setting": "[4]", "value": "S. epidermidis; also recorded: M. luteus; also recorded: A. baumannii"}]}, {"substance": "PF-132 (RPGDGAAEQGRSR; Peptide with targeting and/or antimicrobial activity)", "values": [{"measurement": "Target(s)", "setting": "[4]", "value": "S. epidermidis; also recorded: C. jeikeium"}]}, {"substance": "PF-295 (NIQVYESECGNYIFKKSDESFLIDIFDKNGTH; Peptide with targeting and/or antimicrobial activity)", "values": [{"measurement": "Target(s)", "setting": "[4]", "value": "C. difficile"}]}, {"substance": "PF-388 (ITPLLDEIGKVCIDKISK; Peptide with targeting and/or antimicrobial activity)", "values": [{"measurement": "Target(s) (microorganisms bound by the targeting peptide)", "setting": "[2]", "value": "E. faecalis; also recorded: C. jeikeium; also recorded: C. jejuni"}]}, {"substance": "PF-C273 (KNMLKRRMKQKRLFDEEDRLRVLSKYTKSYY; Peptide with targeting and/or antimicrobial activity)", "values": [{"measurement": "Target(s) (microorganism bound by the targeting peptide)", "setting": "[2]", "value": "A. naeslundii; also recorded: P. gingivalis; also recorded: S. mutans; also recorded: T. denticola"}]}, {"substance": "1T-295 (KYKLKKIIL; Peptide with targeting and/or antimicrobial activity) [Peptide 1T-295]", "values": [{"measurement": "Target(s)", "setting": "[1]", "value": "S. mitis; also recorded: S. salivarious; also recorded: S. sanguinis"}]}, {"substance": "1T-104 (RAVAAHLQGRHHGHQVRRQRHGQR; Peptide with targeting and/or antimicrobial activity) [Peptide 1T-104]", "values": [{"measurement": "Target(s) (microorganism bound by the targeting peptide)", "setting": "[3]", "value": "S. mitis"}]}, {"substance": "1T-6 (KFINGVLSQFVLERK; Peptide with targeting and/or antimicrobial activity) [Peptide 1T-6]", "values": [{"measurement": "Target(s) (microorganism bound by the targeting peptide)", "setting": "[3]", "value": "S. mutans"}]}, {"substance": "PF-C134 (NELMKYPATLTATATTPGIKYSHLCSVCL; Peptide with targeting and/or antimicrobial activity)", "values": [{"measurement": "Target(s) (microorganism bound by the targeting peptide)", "setting": "[2]", "value": "A. naeslundii; also recorded: F. nucleatum; also recorded: P. gingivalis; also recorded: S. mutans; also recorded: T. denticola"}]}, {"substance": "PF-246 (QPDEKAEFFDPSLDKVYRHPTFYHIPDGIEHM; Peptide with targeting and/or antimicrobial activity)", "values": [{"measurement": "Target(s)", "setting": "[4]", "value": "S. mutans"}]}, {"substance": "PF-288 (IYQLLNIEYSEDD; Peptide with targeting and/or antimicrobial activity)", "values": [{"measurement": "Target(s)", "setting": "[4]", "value": "S. mutans; also recorded: E. coli"}]}, {"substance": "PF-463 (MVILVFSLIFIFTDNYLVYQSKSIKEDVMI; Peptide with targeting and/or antimicrobial activity)", "values": [{"measurement": "Target(s) (microorganisms bound by the targeting peptide)", "setting": "[2]", "value": "S. epidermidis; also recorded: E. coli; also recorded: P. aeruginosa; also recorded: C. albicans; also recorded: S. pneumoniae; also recorded: E. faecalis; also recorded: M. smegmatis"}]}, {"substance": "1T-8 (FSVAACGEQRAVTFVLLIEDLI; Peptide with targeting and/or antimicrobial activity) [Peptide 1T-8]", "values": [{"measurement": "Target(s) (microorganism bound by the targeting peptide)", "setting": "[3]", "value": "M. xanthus"}]}, {"substance": "PF-486 (MQKEGEEDY; Peptide with targeting and/or antimicrobial activity)", "values": [{"measurement": "Target(s) (microorganisms bound by the targeting peptide)", "setting": "[2]", "value": "S. mutans"}]}, {"substance": "1T-74 (DIDWGRKISCAAGVAYGAIDGCATTV; Peptide with targeting and/or antimicrobial activity) [Peptide 1T-74]", "values": [{"measurement": "Target(s) (microorganism bound by the targeting peptide)", "setting": "[3]", "value": "S. pneumoniae"}]}, {"substance": "1T-274 (ETTTEINAIKLHRIKQRSPQGTRRVN; Peptide with targeting and/or antimicrobial activity) [Peptide 1T-274]", "values": [{"measurement": "Target(s)", "setting": "[1]", "value": "F. nucleatum; also recorded: S. mutans; also recorded: S. oralis; also recorded: S. sanguinis"}]}, {"substance": "1T-87 (EAVGQDLVDAHHP; Peptide with targeting and/or antimicrobial activity) [Peptide 1T-87]", "values": [{"measurement": "Target(s) (microorganism bound by the targeting peptide)", "setting": "[3]", "value": "S. mitis; also recorded: S. mutans; also recorded: S. oralis"}]}, {"substance": "1T-282 (ISLVFPAYT; Peptide with targeting and/or antimicrobial activity) [Peptide 1T-282]", "values": [{"measurement": "Target(s)", "setting": "[1]", "value": "F. nucleatum; also recorded: P. gingivalis; also recorded: S. gordonii; also recorded: S. mitis; also recorded: S. mutans; also recorded: S. oralis; also recorded: S. salivarious; also recorded: S. sanguinis"}]}, {"substance": "1T-75 (GVARGLQLGIKTRTQWGAATGAA; Peptide with targeting and/or antimicrobial activity) [Peptide 1T-75]", "values": [{"measurement": "Target(s) (microorganism bound by the targeting peptide)", "setting": "[3]", "value": "S. pneumoniae"}]}, {"substance": "PF-217 (DWEFTHKTIPQKK; Peptide with targeting and/or antimicrobial activity)", "values": [{"measurement": "Target(s)", "setting": "[4]", "value": "S. mutans"}]}, {"substance": "PF-146 (GCGKRRIITKSASRDTR; Peptide with targeting and/or antimicrobial activity)", "values": [{"measurement": "Target(s)", "setting": "[4]", "value": "S. epidermidis and M. luteus and P. aeruginosa and C. albicans and MRSA and C. jeikeium"}]}, {"substance": "PF-402 (FIDVLKSKINEFLN; Peptide with targeting and/or antimicrobial activity)", "values": [{"measurement": "Target(s) (microorganisms bound by the targeting peptide)", "setting": "[2]", "value": "S. epidermidis; also recorded: P. aeruginosa; also recorded: E. faecalis; also recorded: C. jejuni"}]}, {"substance": "PF-184 (LIADRHIRA; Peptide with targeting and/or antimicrobial activity)", "values": [{"measurement": "Target(s)", "setting": "[4]", "value": "S. epidermidis and M. luteus and E. coli and P. aeruginosa and C. albicans and MRSA and C. jeikeium"}]}]}
